Read-outs that look alike come from different tables or passages of the source. Where only a bound is given, the exact number is not on record here.

This experiment has as its target T1, human GPR40 (Homo sapiens, UniProt O14842).
T1 construct: expressed in transfected cells
Nature of the experiment: Inositol Phosphate Turnover (IP1) Assay 2. The experiment is classed as cell-based. Here is the method: Human GPR40 stable cell-lines were generated in HEK cells. The expression plasmids were transfected using lipofectamine (Life Technologies) following manufacturer's instructions. Stable cell-lines were generated following drug selection and single cell cloning.
The assay is performed in 384-well format. HEK cells stably expressing human GPR40 are plated at 15,000 cells per well in growth medium (DMEM/10% fetal calf serum). Cell plates are then incubated 16 hours at 37 degrees in a 5% CO2 incubator.
Measurement of Inositol Phosphate Turnover (IP1) is performed using the CisBio IP-One kit (Part number 62IPAPEB). After the 16 hour incubation, the cells are washed with HEPES buffer and 10 ul of stimulation buffer (prepared as described in the kit) is added to each well. In a separate plate, compounds are diluted in DMSO (400-fold over the final concentration in the assay well) and 25 nl is acoustically transferred to the appropriate well in the assay cell plate. The plates are then incubated for 60 minutes at 37 degrees. 10 ul of detection buffer (also prepared as described in the IP-One kit) is added to each well and the plates are incubated for 60 minutes in the dark. The plates are then read in a Perkin Elmer EnVision or equivalent reader able to measure FRET. Fluorescent ratio of emission at 665 and 620 nm is then converted to IP1 concentration by back calculating from an IP1 standard curve prepared at the time of the assay.

T1 sequence (O14842 whole entry): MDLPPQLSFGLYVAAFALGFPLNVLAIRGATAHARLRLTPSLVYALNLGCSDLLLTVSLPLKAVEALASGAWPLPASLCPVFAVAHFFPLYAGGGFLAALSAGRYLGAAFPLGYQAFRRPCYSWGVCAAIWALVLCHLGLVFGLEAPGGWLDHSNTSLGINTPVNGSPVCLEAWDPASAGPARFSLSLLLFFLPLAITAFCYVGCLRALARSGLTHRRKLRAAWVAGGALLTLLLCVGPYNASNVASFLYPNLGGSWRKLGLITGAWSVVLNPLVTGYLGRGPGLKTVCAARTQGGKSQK

On to `C[C@H](C(=O)O)[C@H](c1ccc2c(c1)OC(C1[C@@H]3COC[C@H]1CN(Cc1cc(C(F)(F)F)ccc1C(F)(F)F)C3)CC2)C1CC1` (stereo partly drawn) [Example 40, (2S,3R)-3-(2-((1R,5S)-7-(2,5-bis(trifluoromethyl)benzyl)-3-oxa-7-azabicyclo[3.3.1]nonan-9-yl)chroman-7-yl)-3-cyclopropyl-2-methylpropanoic acid], for which the EC50 (HEK cells stably expressing human GPR40, 15,000 cells per well, CisBio IP-One kit, read-out: Human IP1 (nM), Inositol Phophate Turnover (IP1) Assay 2 EC50 values) is 38.5 nM and the EC50 (HEK cells stably expressing human GPR40, read-out: EC50 values in the Inositol Phophate Turnover (IP1) Assay 2) was less than 6500 nM.

These data come from patent US11072602B2, “Antidiabetic heterocyclic compounds” (Merck Sharp & Dohme Corp., priority 2016, dated 2021).
